Results from patent publication US20180148418A1, “AMIDO-SUBSTITUTED CYCLOHEXANE DERIVATIVES” (Bayer Pharma Aktiengesellschaft, priority 2015, published 2018).
pIC50: −log10 of the molar value.

Legend:
TNKS1 = target: T1, TNKS1 (Homo sapiens, UniProt O95271); assay: TNKS1 Assay B (auto-parsylation, [3H]-NAD+ SPA); format: biochemical; conditions: 6 nM TNKS1, auto-parsylation, over night at room temperature
T1 construct: purchased BPS Bioscience, San Diego, USA 80579 (TNKS1 Histone Ribosylation Assay Kit)
T1 sequence (O95271 1-1327): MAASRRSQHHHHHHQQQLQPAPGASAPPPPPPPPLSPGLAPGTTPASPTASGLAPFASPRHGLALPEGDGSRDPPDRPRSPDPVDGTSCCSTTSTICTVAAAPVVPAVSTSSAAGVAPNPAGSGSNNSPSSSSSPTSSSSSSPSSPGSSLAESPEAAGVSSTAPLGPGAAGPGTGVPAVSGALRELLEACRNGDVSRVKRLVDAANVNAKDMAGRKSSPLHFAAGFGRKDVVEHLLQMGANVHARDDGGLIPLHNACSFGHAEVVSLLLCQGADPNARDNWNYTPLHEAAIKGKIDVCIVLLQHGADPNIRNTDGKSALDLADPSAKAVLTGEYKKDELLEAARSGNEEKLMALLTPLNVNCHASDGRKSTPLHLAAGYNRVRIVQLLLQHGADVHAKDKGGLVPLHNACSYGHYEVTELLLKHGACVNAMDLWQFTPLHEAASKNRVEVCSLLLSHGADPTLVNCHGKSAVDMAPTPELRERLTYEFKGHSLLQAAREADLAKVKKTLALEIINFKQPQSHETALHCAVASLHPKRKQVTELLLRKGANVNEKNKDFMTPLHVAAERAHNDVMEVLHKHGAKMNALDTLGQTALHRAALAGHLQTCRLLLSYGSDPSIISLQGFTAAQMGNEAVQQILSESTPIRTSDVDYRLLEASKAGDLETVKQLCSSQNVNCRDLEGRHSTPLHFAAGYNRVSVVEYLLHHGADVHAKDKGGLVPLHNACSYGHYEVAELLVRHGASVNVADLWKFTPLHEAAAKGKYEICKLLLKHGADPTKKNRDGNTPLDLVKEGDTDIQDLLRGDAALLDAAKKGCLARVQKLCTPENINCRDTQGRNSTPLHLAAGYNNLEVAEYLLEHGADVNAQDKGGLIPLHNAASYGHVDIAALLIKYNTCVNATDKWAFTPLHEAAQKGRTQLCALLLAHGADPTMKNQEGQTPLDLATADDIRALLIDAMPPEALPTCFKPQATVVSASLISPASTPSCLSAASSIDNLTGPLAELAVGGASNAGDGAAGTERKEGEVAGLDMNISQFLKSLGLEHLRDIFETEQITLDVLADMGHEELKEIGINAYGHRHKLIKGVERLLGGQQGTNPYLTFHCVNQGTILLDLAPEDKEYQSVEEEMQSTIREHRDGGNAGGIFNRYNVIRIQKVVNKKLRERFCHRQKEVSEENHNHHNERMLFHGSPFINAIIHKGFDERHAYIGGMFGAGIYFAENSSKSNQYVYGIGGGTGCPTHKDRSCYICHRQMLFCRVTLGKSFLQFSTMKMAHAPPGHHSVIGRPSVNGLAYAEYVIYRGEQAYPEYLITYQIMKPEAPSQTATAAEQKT
Method: The potency of selected compounds according to the invention was assessed applying a modified in vitro inhibition assay. Here, the TNKS1 catalyzed NAD^+-dependent ribosylation of the enzyme itself (auto-parsylation) was detected using [^3H]-NAD^+ as substrate and applying the scintillation proximity assay (SPA) method to detect tritium-labeled, parsylated TNKS1. The intensity of the readout signal is proportional to the incorporated [^3H]-NAD^+. Inhibition of TNKS1 leads to a decreased incorporation of [^3H]-NAD^+ and consequently to a lower readout signal intensity. The concentration of a test compound which inhibits the enzyme activity by 50% (corresponds to half of the normed readout signal intensity) is reported as IC50.
Protocol Auto-Parsylation Assay
The assay was conducted in a 96 well MTP format with the identical TNKS1 enzyme sample and NAD^+ sample as in the histone ribosylation assay with the following modifications: TNKS1 enzyme sample was diluted with a modified assay buffer (50 mM MES pH 7.0, 1 mM DTT, 0.01% Triton X-100) to a final concentration of 6 nM TNKS1 and 10×NAD^+ solution was diluted with the modified assay buffer (s. above) to a final 0.445×NAD^+ solution doped with 100 Bq/μl [^3H]-NAD^+[Catalog #NET443H050UC, Perkin Elmer, Waltham, Mass., USA]. Substrate solution (10 μl) was incubated with different test compound concentrations (2.5 ul in 10% DMSO in modified assay buffer) or control (2.5 ul 10% DMSO in modified assay buffer only) and enzyme (10 μl) over night at room temperature. Incorporated tritium was measured after addition of 50 μl SPA beads (1 mg/ml) [Catalog #RPNQ0095 20 mg/ml, Perkin Elmer, Waltham, Mass., USA; diluted 1:10 with Dulbecco's phosphate buffered saline, PBS Catalog #D8537, Sigma-Aldrich, Steinheim, Germany] and detection of the photon emission with a beta count plate reader [Wallac MicroBeta®, Perkin Elmer, Waltham, Mass., USA].

[1] = test system: HEK293 cells cotransfected with the FOP control vector; assay: HEK293 FOP assay (control reporter with non-functional TCF elements); format: cell-based; conditions: 16 hours
Procedure, shortened: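 Stable HEK293 line carrying FOP control reporter (randomized non-functional TCF sites, with pcDNA3), Geneticin-selected, plated 24 h before assay. Stimulated with recombinant human Wnt-3a (2500-5 ng/ml) and compounds 50 μM–15 nM (3.16-fold steps) in CAFTY buffer pH 7.4 with 2 mM Ca2+, 0.01% BSA, run parallel to TOP line.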

COCC(C)NC(=O)c1nc[nH]c1C(=O)N[C@H]1CC[C@@]2(CCN(c3ccc(F)cc3Cl)C2=O)CC1 (mixture of isomers) [Example 164, N^5-[(trans)-2-(2-chloro-4-fluorophenyl)-1-oxo-2-azaspiro[4.5]dec-8-yl]-N^4-(1-methoxypropan-2-yl)-1H-imidazole-4,5-dicarboxamide]
pIC50 (TNKS1): 7.43
pIC50 ([1]; Homo sapiens): ≤ 4.30

Cc1c(C(C)N(C)C)cnc2c(C(=O)N[C@H]3CC[C@H](C(=O)Nc4ccc(F)cc4Cl)CC3)cnn12 (single isomer, unassigned) [Example 56, N-{trans-4-[(2-chloro-4-fluorophenyl)carbamoyl]cyclohexyl}-6-[1-(dimethylamino)ethyl]-7-methylpyrazolo[1,5-a]pyrimidine-3-carboxamide]
pIC50 (TNKS1): 6.08
pIC50 ([1]; Homo sapiens): ≤ 4.30

Cc1c(C(C)N(C)C)cnc2c(C(=O)N[C@H]3CC[C@H](C(=O)Nc4ccc(F)cc4Cl)CC3)cnn12 (single isomer, unassigned) [Example 57, N-{trans-4-[(2-chloro-4-fluorophenyl)carbamoyl]cyclohexyl}-6-[1-(dimethylamino)ethyl]-7-methylpyrazolo[1,5-a]pyrimidine-3-carboxamide]
pIC50 (TNKS1): 6.36
pIC50 [1]: ≤ 4.30

CNC(=O)c1nc[nH]c1C(=O)N[C@H]1CC[C@H](C(=O)Nc2cc(F)c(F)cc2Cl)CC1 [Example 3, N^5-{trans-4-[(2-chloro-4,5-difluorophenyl)carbamoyl]cyclohexyl}-N^4-methyl-1H-imidazole-4,5-dicarboxamide]
pIC50 (TNKS1): 8.00
pIC50 ([1]; Homo sapiens): ≤ 4.30

O=C(NCCN1CCCCC1)c1nc[nH]c1C(=O)N[C@H]1CC[C@H](C(=O)Nc2cc(F)c(F)cc2Cl)CC1 [Example 4, N^5-{trans-4-[(2-chloro-4,5-difluorophenyl)carbamoyl]cyclohexyl}-N^4-[2-(piperidin-1-yl)ethyl]-1H-imidazole-4,5-dicarboxamide]
pIC50 (TNKS1): 8.66
pIC50 ([1]; Homo sapiens): ≤ 4.30

CNC(=O)c1nc[nH]c1C(=O)N[C@H]1CC[C@H](C(=O)Nc2cc(OC)c(OC)cc2Cl)CC1 [Example 5, N^5-{trans-4-[(2-chloro-4,5-dimethoxyphenyl)carbamoyl]cyclohexyl}-N^4-methyl-1H-imidazole-4,5-dicarboxamide]
pIC50 (TNKS1): 6.82
pIC50 ([1]; Homo sapiens): ≤ 4.30

CNC(=O)c1nc[nH]c1C(=O)N[C@H]1CC[C@H](C(=O)Nc2c(F)cc(F)cc2Cl)CC1 [Example 6, N^5-{trans-4-[(2-chloro-4,6-difluorophenyl)carbamoyl]cyclohexyl}-N^4-methyl-1H-imidazole-4,5-dicarboxamide]
pIC50 (TNKS1): 7.11
pIC50 ([1]; Homo sapiens): ≤ 4.30

CNC(=O)c1nc[nH]c1C(=O)N[C@H]1CC[C@H](C(=O)Nc2ccc(F)cc2Br)CC1 [Example 7, N^5-{trans-4-[(2-bromo-4-fluorophenyl)carbamoyl]cyclohexyl}-N^4-methyl-1H-imidazole-4,5-dicarboxamide]
pIC50 (TNKS1): 7.62
pIC50 ([1]; Homo sapiens): ≤ 4.30

CNC(=O)c1nc[nH]c1C(=O)N[C@H]1CC[C@H](C(=O)Nc2ccc(F)cc2)CC1 [Example 8, N^5-{trans-4-[(4-fluorophenyl)carbamoyl]cyclohexyl}-N^4-methyl-1H-imidazole-4,5-dicarboxamide]
pIC50 (TNKS1): 5.39
pIC50 ([1]; Homo sapiens): ≤ 4.30

CNC(=O)c1nc[nH]c1C(=O)N[C@H]1CC[C@H](C(=O)Nc2ccc(C)cc2Cl)CC1 [Example 9, N^5-{trans-4-[(2-chloro-4-methylphenyl)carbamoyl]cyclohexyl}-N^4-methyl-1H-imidazole-4,5-dicarboxamide]
pIC50 (TNKS1): 7.07
pIC50 ([1]; Homo sapiens): ≤ 4.30

CNC(=O)c1[nH]cnc1C(=O)NC1CCC(C(=O)Nc2ccc(F)cc2Cl)CC1OC (stereo not drawn) [Example 36, N^4-{(1α,2β,4β)-4-[(2-chloro-4-fluorophenyl)carbamoyl]-2-methoxycyclohexyl}-N^5-methyl-1H-imidazole-4,5-dicarboxamide]
pIC50 (TNKS1): < 5.00
pIC50 [1]: ≤ 4.30

CNC(=O)c1[nH]cnc1C(=O)NC1CCC(C(=O)Nc2ccc(F)cc2Cl)CC1OC (stereo not drawn) [Example 37, N^4-{(1α,2β,4β)-4-[(2-chloro-4-fluorophenyl)carbamoyl]-2-methoxycyclohexyl}-N^5-methyl-1H-imidazole-4,5-dicarboxamide]
pIC50 (TNKS1): < 5.00
pIC50 [1]: ≤ 4.30

O=C(NCCC1CC1)c1nc[nH]c1C(=O)N[C@H]1CC[C@H](C(=O)Nc2cc(N3CCOCC3)ccc2Cl)CC1 [Example 93, N^5-(trans-4-{[2-chloro-5-(morpholin-4-yl)phenyl]carbamoyl}cyclohexyl)-N^4-(2-cyclopropylethyl)-1H-imidazole-4,5-dicarboxamide]
pIC50 (TNKS1): 6.10
pIC50 ([1]; Homo sapiens): 4.92

CC(C)(O)CNC(=O)c1nc[nH]c1C(=O)N[C@H]1CC[C@H](C(=O)Nc2cc(N3CCOCC3)ccc2Cl)CC1 [Example 94, N^5-(trans-4-{[2-chloro-5-(morpholin-4-yl)phenyl]carbamoyl}cyclohexyl)-N^4-(2-hydroxy-2-methylpropyl)-1H-imidazole-4,5-dicarboxamide]
pIC50 (TNKS1): 5.89
pIC50 ([1]; Homo sapiens): ≤ 4.30

O=C(NCC(F)(F)F)c1nc[nH]c1C(=O)N[C@H]1CC[C@H](C(=O)Nc2cc(N3CCOCC3)ccc2Cl)CC1 [Example 95, N^5-(trans-4-{[2-chloro-5-(morpholin-4-yl)phenyl]carbamoyl}cyclohexyl)-N^4-(2,2,2-trifluoroethyl)-1H-imidazole-4,5-dicarboxamide]
pIC50 (TNKS1): 5.62
pIC50 ([1]; Homo sapiens): 4.41

CNC(=O)c1nc[nH]c1C(=O)N[C@H]1CC[C@H](C(=O)Nc2cnccc2Cl)CC1 [Example 96, N^5-{trans-4-[(4-chloropyridin-3-yl)carbamoyl]cyclohexyl}-N^4-methyl-1H-imidazole-4,5-dicarboxamide]
pIC50 (TNKS1): 7.40
pIC50 ([1]; Homo sapiens): 4.74

O=C(NCC1CCCO1)c1nc[nH]c1C(=O)N[C@H]1CC[C@H](C(=O)Nc2cnccc2Cl)CC1 (stereo partly drawn) [Example 97, N^5-{trans-4-[(4-chloropyridin-3-yl)carbamoyl]cyclohexyl}-N^4-(tetrahydrofuran-2-ylmethyl)-1H-imidazole-4,5-dicarboxamide]
pIC50 (TNKS1): 7.35
pIC50 ([1]; Homo sapiens): 4.74

COC(C)(C)CNC(=O)c1nc[nH]c1C(=O)N[C@H]1CC[C@H](C(=O)Nc2cnccc2Cl)CC1 [Example 98, N^5-{trans-4-[(4-chloropyridin-3-yl)carbamoyl]cyclohexyl}-N^4-(2-methoxy-2-methylpropyl)-1H-imidazole-4,5-dicarboxamide]
pIC50 (TNKS1): 7.27
pIC50 ([1]; Homo sapiens): ≤ 4.30
